According to patent publication US20240316047A1, “INHIBITORS OF RNA HELICASE DHX9 AND USES THEREOF” (ACCENT THERAPEUTICS, INC., priority 2022, published 2024):

Biological target: Human recombinant DHX9 protein (Homo sapiens (Human), UniProt Q08211)
Assay: DHX9 ATPase assay (ADP-Glo)
Type: biochemical
Settings: for IC50: read-out: DHX9 Biochemical Inflection Point

Sequence of Human recombinant DHX9 protein (Q08211 whole entry): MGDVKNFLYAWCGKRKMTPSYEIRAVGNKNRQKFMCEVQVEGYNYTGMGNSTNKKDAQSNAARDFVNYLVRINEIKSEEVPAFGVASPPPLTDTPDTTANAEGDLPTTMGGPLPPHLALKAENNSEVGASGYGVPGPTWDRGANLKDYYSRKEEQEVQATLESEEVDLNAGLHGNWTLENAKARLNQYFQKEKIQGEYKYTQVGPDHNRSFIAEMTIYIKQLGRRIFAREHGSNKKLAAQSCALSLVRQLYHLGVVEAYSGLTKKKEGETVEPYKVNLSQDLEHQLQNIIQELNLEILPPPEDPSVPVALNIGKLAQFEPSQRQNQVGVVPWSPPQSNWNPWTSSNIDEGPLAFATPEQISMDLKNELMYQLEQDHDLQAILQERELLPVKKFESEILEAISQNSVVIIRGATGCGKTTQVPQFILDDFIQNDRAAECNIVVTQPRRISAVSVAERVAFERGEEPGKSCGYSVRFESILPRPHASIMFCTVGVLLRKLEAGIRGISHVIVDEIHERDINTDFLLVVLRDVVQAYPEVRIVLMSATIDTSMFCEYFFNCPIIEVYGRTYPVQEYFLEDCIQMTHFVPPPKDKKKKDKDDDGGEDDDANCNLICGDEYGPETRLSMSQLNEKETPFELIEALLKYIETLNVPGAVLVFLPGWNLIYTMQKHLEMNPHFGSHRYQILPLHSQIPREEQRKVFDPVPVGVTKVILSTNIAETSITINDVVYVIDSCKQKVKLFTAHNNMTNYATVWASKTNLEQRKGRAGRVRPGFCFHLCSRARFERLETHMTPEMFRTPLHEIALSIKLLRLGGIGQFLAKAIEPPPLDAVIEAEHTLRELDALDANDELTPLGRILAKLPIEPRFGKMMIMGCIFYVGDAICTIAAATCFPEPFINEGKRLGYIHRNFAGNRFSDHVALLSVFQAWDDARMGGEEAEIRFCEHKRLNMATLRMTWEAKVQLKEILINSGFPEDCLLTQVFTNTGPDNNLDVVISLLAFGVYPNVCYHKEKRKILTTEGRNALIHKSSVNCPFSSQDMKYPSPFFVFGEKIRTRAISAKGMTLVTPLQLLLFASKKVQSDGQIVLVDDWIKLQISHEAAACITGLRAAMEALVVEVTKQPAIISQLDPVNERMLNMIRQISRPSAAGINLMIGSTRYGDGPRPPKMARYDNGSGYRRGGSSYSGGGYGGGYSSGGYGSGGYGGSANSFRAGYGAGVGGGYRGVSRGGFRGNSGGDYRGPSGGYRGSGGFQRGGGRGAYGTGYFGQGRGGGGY

SMILES | DHX9 Biochemical Max Inhibition | IC50 [nM]
Cc1cccnc1-c1csc(C(=O)Nc2cc(Br)cc(NS(C)(=N)=O)c2)c1 (centres unmarked) [Example 122] | 67.7% | 28.8
CS(=O)(=O)Nc1cc(Cl)cc(NC(=O)c2cc(-c3ncccc3C(F)(F)F)cs2)c1 [Example 223] | 75.7% | 56.5
Cn1cc(C(=O)Nc2cc(Cl)cc(NS(C)(=O)=O)c2)nc1-c1ccccc1 [Example 155, N-(3-chloro-5-(methylsulfonamido)phenyl)-1-methyl-2-phenyl-1H-imidazole-4-carboxamide] | 66.4% | 126
CS(=O)(=O)Nc1cc(Cl)cc(NC(=O)c2cc(-c3ccc(F)cn3)n(CC(F)F)c2)c1 [Example 286] | 72.9% | 240
CCS(=O)(=O)Nc1cc(Cl)cc(NC(=O)c2cc(-c3ccccn3)c(C)s2)c1 [Example 28] | 68.3% | 4.2
Cc1cc(C(=O)Nc2cc(Cl)cc(NS(C)(=O)=O)c2)cn1-c1ccccc1 [Example 129, N-(3-chloro-5-(methylsulfonamido)phenyl)-5-methyl-1-phenyl-1H-pyrrole-3-carboxamide] | 66.4% | –
CS(=O)(=O)Nc1cc(Br)cc(NC(=O)c2cnn(C3CCCCC3)c2)c1 [Example 48] | 54.1% | 93.1
CS(=O)(=O)Nc1cc(Cl)cc(NC(=O)c2cc3ccc(Cl)cc3s2)c1 [Example 293] | 55% | 87.2
CS(=O)(=O)Nc1cc(Cl)cc(NC(=O)c2cnn(-c3ncccc3OCc3nccs3)c2)c1 [Example 205] | 71.4% | 22.6
Cc1cc(C(=O)Nc2cc(Cl)cc(NS(C)(=O)=O)c2)cn1-c1ccc(N2CCN(C(=O)N(C)C)CC2)cn1 [Example 284] | 79.6% | 4.1
Cc1ccc(C(=O)Nc2cc(Br)cc(NS(C)(=O)=O)c2)cc1-n1cccn1 [Example 10] | 61% | 133
COc1cnc(-c2cc(C(=O)Nc3cc(Cl)cc(NS(C)(=O)=O)c3)sc2C)nc1 [Example 341] | 83.05% | 6.2
Cc1cc(C(=O)Nc2cc(F)cc(NS(C)(=O)=O)c2)n[nH]1 [Example 3] | 76.4% | 648
CS(=O)(=O)Nc1cc(Cl)cc(NC(=O)c2cnn(-c3ncc(F)cc3OCc3cccc(C#N)c3)c2)c1 [Example 203] | 76.5% | 28.1
CN1CCN(c2ccc(-n3cc(C(=O)Nc4cc(Br)cc(NS(C)(=O)=O)c4)cn3)nc2)CC1=O [Example 88] | 54.2% | 7.1
Cn1cc(C(=O)Nc2cc(Cl)cc(NS(C)(=O)=O)c2)cc1-c1ncc(F)cn1 [Example 171, N-(3-chloro-5-(methylsulfonamido)phenyl)-5-(5-fluoropyrimidin-2-yl)-1-methyl-1H-pyrrole-3-carboxamide] | 61.8% | 14.5
Cc1ccc(OCc2cccc(F)c2)c(-n2cc(C(=O)Nc3cc(Cl)cc(NS(C)(=O)=O)c3)cn2)n1 [Example 204] | 68.9% | 9.6
CS(=O)(=O)Nc1cc(Cl)cc(NC(=O)c2cccc(-c3cccc(C#N)c3)c2)c1 [Example 13] | 41.7% | 1150
CS(=O)(=O)Nc1cc(Cl)cc(NC(=O)c2cc(-c3ncc(F)cn3)cs2)c1 [Example 338] | 78% | 15.7
CS(=O)(=O)Nc1cc(Cl)cc(NC(=O)c2cnn(-c3ncccc3Oc3ncccn3)c2)c1 [Example 196] | 68.9% | 78.6
CS(=O)(=O)Nc1cc(Cl)cc(NC(=O)c2cc(-c3ccccc3OCc3ccccc3)cs2)c1 [Example 111] | 68.2% | 250
Cc1cc(C(=O)Nc2cc(Cl)cc(NS(C)(=O)=O)c2)cn1-c1ncccn1 [Example 59] | 77.5% | 12.7
CC(c1ccccc1)n1cc(C(=O)Nc2cc(Cl)cc(NS(C)(=O)=O)c2)cn1 (centres unmarked) [Example 142, N-(3-chloro-5-(methylsulfonamido)phenyl)-1-(1-phenylethyl)-1H-pyrazole-4-carboxamide] | 62% | 514
CS(=O)(=O)Nc1cc(Br)cc(NC(=O)c2cc(-c3ncccc3OCc3ccccc3)cs2)c1 [Example 32] | 56.3% | 38.3
CS(=O)(=O)Nc1cc(Cl)cc(NC(=O)c2cnn(-c3ncccc3C(F)(F)F)c2)c1 [Example 47] | 64.7% | 269

More lines, now with the values ahead:

DHX9 Biochemical Max Inhibition | IC50 [nM] | SMILES
84.5 | 186 | CCS(=O)(=O)Nc1cc(Cl)cc(NC(=O)c2cc(-c3ccc(N4CC(F)(F)C4)cn3)n(C)c2)c1 [Example 403]
77.1 | 6.6 | Cc1cc(C(=O)Nc2cc(Cl)cc(NS(C)(=O)=O)c2)cn1-c1ccc(N2CC(F)C2)cn1 [Example 395]
70.8 | 95.5 | Cn1cc(C(=O)Nc2cc(Cl)cc(NS(C)(=O)=O)c2)cc1-c1ncc(N2CC3(C2)CC(F)(F)C3)cc1F [Example 702]
85.6 | 153 | CCS(=O)(=O)Nc1cc(Cl)cc(NC(=O)c2cc(-c3ncc(C(F)(F)F)cc3C)c(C)s2)c1 [Example 700]
77 | 58.4 | Cn1cc(C(=O)Nc2cc(Cl)cc(NS(C)(=O)=O)c2)cc1-c1c(F)cc(F)c[n+]1[O-] [Example 567]
61.5 | 16.2 | CCOc1cnc(-c2cc(C(=O)Nc3cc(Cl)cc(NS(C)(=O)=O)c3)sc2C)c(F)c1 [Example 456]
71.8 | 3.5 | Cn1cc(C(=O)Nc2cc(Cl)cc(NS(C)(=O)=O)c2)cc1-c1ncc(N2CCC2)cn1 [Example 521]
55.6 | 19.2 | Cc1sc(C(=O)Nc2cc(Cl)cc(NS(C)(=O)=O)c2)cc1-c1ncc(F)cc1-c1cnco1 [Example 705]
54.4% | 55.2 | CCS(=O)(=O)Nc1cc(Cl)cc(NC(=O)c2cc(-c3ncc(F)cn3)cs2)c1 [Example 343]
72.175 | 33.4 | Cc1sc(C(=O)Nc2cc(Cl)cc(NS(C)(=O)=O)c2)cc1-c1ncc(OC(C)(C)C)cn1 [Example 559]
78 | 45.8 | Cn1cc(C(=O)Nc2cc(F)cc(NS(C)(=O)=O)c2)cc1-c1ncc(F)cc1F [Example 558]
82.2 | 11.1 | Cn1cc(C(=O)Nc2cc(Cl)cc(NS(C)(=O)=O)c2)cc1-c1ncc(N2CC(F)C2)cc1F [Example 466]
72.7 | 21.6 | CS(=O)(=O)Nc1cc(Cl)cc(NC(=O)c2cc(C(=O)N3CCN(c4ccccc4)CC3)n(-c3ccccn3)c2)c1 [Example 654]
79.7 | 76.1 | Cn1cc(C(=O)Nc2cc(Cl)cc(NS(C)(=O)=O)c2)cc1-c1ncc(C(F)(F)F)cc1F [Example 554]
67.4% | – | Cc1sc(C(=O)Nc2cc(Cl)cc(NS(C)(=O)=O)c2)cc1-c1ncc(OC(C)(C)C)cc1F [Example 381]
75.5% | 39 | CS(=O)(=O)Nc1cc(Cl)cc(NC(=O)c2cc(-c3ncccc3Cc3ncccn3)cs2)c1 [Example 384]

DHX9 Biochemical Max Inhibition | IC50 [nM] | SMILES
105 | 203 | Cc1cc(C(=O)Nc2cc(Cl)cc(NS(C)(=O)=O)c2)cn1-c1ncc(N2CC(F)(F)C2)cc1C(F)(F)F [Example 407]
88.1 | 17.5 | Cn1cc(C(=O)Nc2cc(Cl)cc(NS(C)(=O)=O)c2)cc1-c1ncc(F)cc1OCc1cnnn1C [Example 726]
70.5 | 80.8 | CCS(=O)(=O)Nc1cc(Cl)cc(NC(=O)c2cc(C)n(-c3ncc(F)cc3F)c2)c1 [Example 445]
72.1 | 16.4 | Cn1cc(C(=O)Nc2cc(Cl)cc(NS(C)(=O)=O)c2)cc1-c1ncc(N2CC(F)C2)cn1 [Example 598]
89.7 | 16.6 | Cn1cc(C(=O)Nc2cc(Cl)cc(NS(C)(=O)=O)c2)cc1-c1cc(N2CC(F)(F)C2)ccn1 [Example 552]
75.4 | 1050 | Cc1sc(C(=O)Nc2cc(Cl)cc(NS(C)(=O)=O)c2)cc1-c1nccn1CCc1ccccc1 [Example 698]
60% | 579 | Cc1cccnc1-c1csc(C(=O)Nc2cc(Cl)cc(N(C)S(C)(=O)=O)c2)c1 [Example 374]
61.4 | 40.8 | CS(=O)(=O)Nc1cc(Cl)cc(NC(=O)c2cc(C(=O)N3CC4(CNC4)C3)n(-c3ccccn3)c2)c1 [Example 643]
64.8 | 20.6 | Cn1cc(C(=O)Nc2cc(Cl)cc(NS(C)(=O)=O)c2)cc1-c1ncc(OC(C)(C)C)cn1 [Example 556]
72.2 | 10.5 | Cc1cc(C(=O)Nc2cc(Cl)cc(NS(C)(=O)=O)c2)cn1-c1ncc(N2CCOCC2)cc1F [Example 412]
74 | 36.5 | Cc1noc(C)c1COc1cc(F)cnc1-c1cc(C(=O)Nc2cc(Cl)cc(NS(C)(=O)=O)c2)cn1C [Example 725]
68.9 | 70.8 | CS(=O)(=O)Nc1cc(Cl)cc(NC(=O)c2cnn(-c3ccccc3COc3cncc(F)c3)c2)c1 [Example 428]
82.3 | 7.3 | Cc1cc(C(=O)Nc2cc(Cl)cc(NS(C)(=O)=O)c2)cn1-c1ccc(OC2COC2)cn1 [Example 668]
69.7 | 84.7 | CS(=O)(=O)Nc1cc(Cl)cc(NC(=O)c2cnn(-c3ncc(F)cc3OCc3cnco3)c2)c1 [Example 719]
62.3 | 64.5 | CS(=O)(=O)Nc1cc(Cl)cc(NC(=O)c2cc(-c3ncc(F)cn3)n(CC(F)(F)F)c2)c1 [Example 562]
